# Measured values taken from ChEMBL document CHEMBL4308841, “Synthesis, in vitro antiproliferative activity, and kinase inhibitory effects of pyrazole-containing diarylureas and diarylamides” (Eur J Med Chem, 2018).
# What was measured:
# K562 = test: Growth inhibition of human K562 cells incubated for 48 hrs by sulforhodamine B assay; type: functional, cell-based; conditions: K562, 48 h
# HCT-116 = test: Growth inhibition of human HCT116 cells incubated for 48 hrs by sulforhodamine B assay; type: functional, cell-based; conditions: HCT-116, 48 h
# UACC-257 = test: Growth inhibition of human UACC257 cells incubated for 48 hrs by sulforhodamine B assay; type: functional, cell-based; conditions: UACC-257, 48 h
# OVCAR-8 = test: Growth inhibition of human OVCAR8 cells incubated for 48 hrs by sulforhodamine B assay; type: functional, cell-based; conditions: OVCAR-8, 48 h
# UO-31 = test: Growth inhibition of human UO31 cells incubated for 48 hrs by sulforhodamine B assay; type: functional, cell-based; conditions: UO-31, 48 h
# MDA-MB-231 = test: Growth inhibition of human MDA-MB-231 cells incubated for 48 hrs by sulforhodamine B assay; type: functional, cell-based; conditions: MDA-MB-231, 48 h
# BT-549 [1] = test: Growth inhibition of human BT549 cells incubated for 48 hrs by sulforhodamine B assay; type: functional, cell-based; conditions: BT-549, 48 h
# HOP-62 = test: Growth inhibition of human HOP62 cells assessed as cell growth at 0.01 uM incubated for 48 hrs by sulforhodamine B assay relative to control; type: functional; conditions: HOP-62, 48 h, read-out: Activity
# COLO 205 = test: Growth inhibition of human COLO205 cells assessed as cell growth at 0.01 uM incubated for 48 hrs by sulforhodamine B assay relative to control; type: functional; conditions: COLO 205, 48 h, read-out: Activity
# KM12 [2] = test: Growth inhibition of human KM12 cells assessed as cell growth at 0.01 uM incubated for 48 hrs by sulforhodamine B assay relative to control; type: functional; conditions: KM12, 48 h, read-out: Activity
# SF-539 [3] = test: Growth inhibition of human SF539 cells assessed as cell growth at 0.01 uM incubated for 48 hrs by sulforhodamine B assay relative to control; type: functional; conditions: SF-539, 48 h, read-out: Activity
# LOX IMVI = test: Growth inhibition of human LOXIMVI cells assessed as cell growth at 0.01 uM incubated for 48 hrs by sulforhodamine B assay relative to control; type: functional; conditions: read-out: Activity
# OVCAR-3 = test: Growth inhibition of human OVCAR3 cells assessed as cell growth at 0.01 uM incubated for 48 hrs by sulforhodamine B assay relative to control; type: functional; conditions: OVCAR-3, 48 h, read-out: Activity
# DU-145 = test: Growth inhibition of human DU145 cells assessed as cell growth at 0.01 uM incubated for 48 hrs by sulforhodamine B assay relative to control; type: functional; conditions: DU-145, 48 h, read-out: Activity
# MOLT-4 = test: Growth inhibition of human MOLT4 cells assessed as cell growth at 0.1 uM incubated for 48 hrs by sulforhodamine B assay relative to control; type: functional; conditions: MOLT-4, 48 h, read-out: Activity
# A549 = test: Growth inhibition of human A549/ATCC cells assessed as cell growth at 0.1 uM incubated for 48 hrs by sulforhodamine B assay relative to control; type: functional; conditions: A549, 48 h, read-out: Activity
# NCI-H23 = test: Growth inhibition of human NCI-H23 cells assessed as cell growth at 0.1 uM incubated for 48 hrs by sulforhodamine B assay relative to control; type: functional; conditions: NCI-H23, 48 h, read-out: Activity
# KM12 [4] = test: Growth inhibition of human KM12 cells assessed as cell growth at 0.1 uM incubated for 48 hrs by sulforhodamine B assay relative to control; type: functional; conditions: KM12, 48 h, read-out: Activity
# SW-620 = test: Growth inhibition of human SW620 cells assessed as cell growth at 0.1 uM incubated for 48 hrs by sulforhodamine B assay relative to control; type: functional; conditions: SW-620, 48 h, read-out: Activity
# RXF 393 = test: Growth inhibition of human RXF393 cells assessed as cell growth at 0.1 uM incubated for 48 hrs by sulforhodamine B assay relative to control; type: functional; conditions: RXF 393, 48 h, read-out: Activity
# MCF7 = test: Growth inhibition of human MCF7 cells assessed as cell growth at 0.1 uM incubated for 48 hrs by sulforhodamine B assay relative to control; type: functional; conditions: MCF7, 48 h, read-out: Activity
# CCRF-CEM = test: Growth inhibition of human CCRF-CEM cells assessed as cell growth at 1 uM incubated for 48 hrs by sulforhodamine B assay relative to control; type: functional; conditions: read-out: Activity
# SF-539 [5] = test: Growth inhibition of human SF539 cells assessed as cell growth at 1 uM incubated for 48 hrs by sulforhodamine B assay relative to control; type: functional; conditions: SF-539, 48 h, read-out: Activity
# BT-549 [6] = test: Growth inhibition of human BT549 cells assessed as cell growth at 1 uM incubated for 48 hrs by sulforhodamine B assay relative to control; type: functional; conditions: BT-549, 48 h, read-out: Activity
# MDA-MB-468 = test: Growth inhibition of human MDA-MB-468 cells assessed as cell growth at 1 uM incubated for 48 hrs by sulforhodamine B assay relative to control; type: functional; conditions: MDA-MB-468, 48 h, read-out: Activity
# HCC 2998 = test: Growth inhibition of human HCC2998 cells assessed as cell growth at 100 uM incubated for 48 hrs by sulforhodamine B assay relative to control; type: functional; conditions: HCC 2998, 48 h, read-out: Activity
# M14 = test: Growth inhibition of human M14 cells assessed as cell growth at 100 uM incubated for 48 hrs by sulforhodamine B assay relative to control; type: functional; conditions: M14, 48 h, read-out: Activity
# SK-MEL-2 = test: Growth inhibition of human SK-MEL-2 cells assessed as cell growth at 100 uM incubated for 48 hrs by sulforhodamine B assay relative to control; type: functional; conditions: SK-MEL-2, 48 h, read-out: Activity
# [7] = read-out: LC50 (the source's name)
# [8] = read-out: pLC50 (the source's name) (converted)
smiles,measurement,setting,value
COc1cc(Cl)cc(-c2nn(-c3cccc(NC(=O)c4cccc(C(F)(F)F)c4)c3)cc2-c2ccncc2)c1,GI50,K562; read-out: GI50,4.59 µM
same,LC50,K562; read-out: LC50,> 100 µM
same,TGI,K562; read-out: TGI,> 100 µM
same,GI50,K562; read-out: pGI50 (converted),4.68 µM
same,LC50,K562; read-out: pLC50 (converted),> 100 µM
same,TGI,K562; read-out: pTGI (converted),> 100 µM
same,IC50,HCT-116,3.17 µM
same,GI50,HCT-116; read-out: GI50,3.17 µM
same,CC50,HCT-116; [7],> 100 µM
same,TGI,HCT-116; read-out: TGI,> 100 µM
same,GI50,HCT-116; read-out: pGI50 (converted),3.16 µM
same,CC50,HCT-116; [8],> 100 µM
same,TGI,HCT-116; read-out: pTGI (converted),> 100 µM
same,GI50,UACC-257; read-out: GI50,> 100 µM
same,CC50,UACC-257; [7],> 100 µM
same,TGI,UACC-257; read-out: TGI,> 100 µM
same,GI50,UACC-257; read-out: pGI50 (converted),> 100 µM
same,CC50,UACC-257; [8],> 100 µM
same,TGI,UACC-257; read-out: pTGI (converted),> 100 µM
same,GI50,OVCAR-8; read-out: GI50,5.58 µM
same,CC50,OVCAR-8; [7],> 100 µM
same,TGI,OVCAR-8; read-out: TGI,> 100 µM
same,GI50,OVCAR-8; read-out: pGI50 (converted),6.92 µM
same,CC50,OVCAR-8; [8],> 100 µM
same,TGI,OVCAR-8; read-out: pTGI (converted),> 100 µM
same,IC50,UO-31,2.71 µM
same,GI50,UO-31; read-out: GI50,2.71 µM
same,CC50,UO-31; [7],> 100 µM
same,TGI,UO-31; read-out: TGI,> 100 µM
same,GI50,UO-31; read-out: pGI50 (converted),2.69 µM
same,CC50,UO-31; [8],> 100 µM
same,TGI,UO-31; read-out: pTGI (converted),> 100 µM
same,GI50,MDA-MB-231; read-out: GI50,1.38 µM
same,CC50,MDA-MB-231; [7],> 100 µM
same,TGI,MDA-MB-231; read-out: TGI,99.7 µM
same,GI50,MDA-MB-231; read-out: pGI50 (converted),1.38 µM
same,CC50,MDA-MB-231; [8],> 100 µM
same,TGI,MDA-MB-231; read-out: pTGI (converted),10 µM
same,GI50,BT-549 [1]; read-out: GI50,> 100 µM
same,CC50,BT-549 [1]; [7],> 100 µM
same,TGI,BT-549 [1]; read-out: TGI,> 100 µM
same,GI50,BT-549 [1]; read-out: pGI50 (converted),> 100 µM
same,CC50,BT-549 [1]; [8],> 100 µM
same,TGI,BT-549 [1]; read-out: pTGI (converted),> 100 µM
same,growth at 0.01 µM,HOP-62,104%
same,growth at 0.01 µM,COLO 205,108%
same,growth at 0.01 µM,KM12 [2],110%
same,growth at 0.01 µM,SF-539 [3],93%
same,growth at 0.01 µM,LOX IMVI,100%
same,growth at 0.01 µM,OVCAR-3,105%
same,growth at 0.01 µM,DU-145,109%
same,growth at 0.1 µM,MOLT-4,95%
same,growth at 0.1 µM,A549,93%
same,growth at 0.1 µM,NCI-H23,97%
same,growth at 0.1 µM,KM12 [4],111%
same,growth at 0.1 µM,SW-620,99%
same,growth at 0.1 µM,RXF 393,65%
same,growth at 0.1 µM,MCF7,92%
same,growth at 1 µM,CCRF-CEM,53%
same,growth at 1 µM,SF-539 [5],52%
same,growth at 1 µM,BT-549 [6],94%
same,growth at 1 µM,MDA-MB-468,50%
same,growth at 100 µM,HCC 2998,15%
same,growth at 100 µM,M14,27%
same,growth at 100 µM,SK-MEL-2,47%
COc1cc(Cl)cc(-c2nn(-c3cccc(NC(=O)Nc4ccc(Cl)c(Cl)c4)c3)cc2-c2ccncc2)c1,GI50,K562; read-out: GI50,1 µM
same,LC50,K562; read-out: LC50,> 100 µM
same,TGI,K562; read-out: TGI,> 100 µM
same,GI50,K562; read-out: pGI50 (converted),1.95 µM
same,LC50,K562; read-out: pLC50 (converted),> 100 µM
same,TGI,K562; read-out: pTGI (converted),> 100 µM
same,IC50,HCT-116,2.02 µM
same,GI50,HCT-116; read-out: GI50,2.02 µM
same,CC50,HCT-116; [7],> 100 µM
same,TGI,HCT-116; read-out: TGI,> 100 µM
same,GI50,HCT-116; read-out: pGI50 (converted),2.04 µM
same,CC50,HCT-116; [8],> 100 µM
same,TGI,HCT-116; read-out: pTGI (converted),> 100 µM
same,GI50,UACC-257; read-out: GI50,1.54 µM
same,CC50,UACC-257; [7],> 100 µM
same,TGI,UACC-257; read-out: TGI,61.9 µM
same,GI50,UACC-257; read-out: pGI50 (converted),1.86 µM
same,CC50,UACC-257; [8],> 100 µM
same,TGI,UACC-257; read-out: pTGI (converted),5.25 µM
same,GI50,OVCAR-8; read-out: GI50,2.3 µM
same,CC50,OVCAR-8; [7],> 100 µM
same,TGI,OVCAR-8; read-out: TGI,11.2 µM
same,GI50,OVCAR-8; read-out: pGI50 (converted),2.29 µM
same,CC50,OVCAR-8; [8],> 100 µM
same,TGI,OVCAR-8; read-out: pTGI (converted),11.2 µM
same,IC50,UO-31,1.89 µM
same,GI50,UO-31; read-out: GI50,1.59 µM
same,CC50,UO-31; [7],> 100 µM
same,TGI,UO-31; read-out: TGI,15.2 µM
same,GI50,UO-31; read-out: pGI50 (converted),1.91 µM
same,CC50,UO-31; [8],> 100 µM
same,TGI,UO-31; read-out: pTGI (converted),18.2 µM
same,GI50,MDA-MB-231; read-out: GI50,1.87 µM
same,CC50,MDA-MB-231; [7],1.5 µM
same,TGI,MDA-MB-231; read-out: TGI,45.2 µM
same,GI50,MDA-MB-231; read-out: pGI50 (converted),1.86 µM
same,CC50,MDA-MB-231; [8],15.8 µM
same,TGI,MDA-MB-231; read-out: pTGI (converted),4.47 µM
same,GI50,BT-549 [1]; read-out: GI50,2.52 µM
same,CC50,BT-549 [1]; [7],> 100 µM
same,TGI,BT-549 [1]; read-out: TGI,62.5 µM
same,GI50,BT-549 [1]; read-out: pGI50 (converted),2.63 µM
same,CC50,BT-549 [1]; [8],> 100 µM
same,TGI,BT-549 [1]; read-out: pTGI (converted),8.32 µM
same,growth at 0.01 µM,HOP-62,92%
same,growth at 0.01 µM,COLO 205,99%
same,growth at 0.01 µM,KM12 [2],96%
same,growth at 0.01 µM,SF-539 [3],100%
same,growth at 0.01 µM,LOX IMVI,96%
same,growth at 0.01 µM,OVCAR-3,100%
same,growth at 0.01 µM,DU-145,101%
same,growth at 0.1 µM,MOLT-4,88%
same,growth at 0.1 µM,A549,97%
same,growth at 0.1 µM,NCI-H23,93%
same,growth at 0.1 µM,KM12 [4],92%
same,growth at 0.1 µM,SW-620,97%
same,growth at 0.1 µM,RXF 393,101%
same,growth at 0.1 µM,MCF7,94%
same,growth at 1 µM,CCRF-CEM,82%
same,growth at 1 µM,SF-539 [5],82%
same,growth at 1 µM,BT-549 [6],92%
same,growth at 1 µM,MDA-MB-468,69%
same,growth at 100 µM,HCC 2998,-7%
same,growth at 100 µM,M14,-36%
same,growth at 100 µM,SK-MEL-2,-70%
